Assays:
human Trk A kinase = target: T1, human Trk A kinase (Homo sapiens, UniProt P04629); assay: Trk A kinase Alphascreen assay; type: biochemical; settings: HIS-tagged intracellular domain of human Trk A, 70 μM ATP, 20 minutes, room temperature; read-out: Trk inhibitory activity IC50
T1 construct: His; made in house; host or cells: SF9 insect cells
Method: Trk A kinase activity was measured for its ability to phosphorylate synthetic tyrosine residues within a generic polypeptide substrate using an Amplified Luminescent Proximity Assay (Alphascreen) technology (PerkinElmer, 549 Albany Street, Boston, Mass.).
To measure Trk A kinase activity, the intracellular domain of a HIS-tagged human Trk A kinase (amino acids 442-796 of Trk A, Swiss-Prot Primary Accession Number P04629) was expressed in SF9 cells and purified using standard nickel column chromatography. After incubation of the kinase with a biotinylated substrate and adenosine triphosphate (ATP) for 20 minutes at room temperature, the kinase reaction was stopped by the addition of 30 mM ethylenediaminetetraacetic acid (EDTA). The reaction was performed in 384 well microtitre plates and the reaction products were detected with the addition of strepavidin coated Donor Beads and phosphotyrosine-specific antibodies coated Acceptor Beads using the EnVision Multilabel Plate Reader after an overnight incubation at room temperature.

human JAK2 = target: T2, human JAK2 (Homo sapiens, UniProt O60674); assay: JAK2 kinase Alphascreen assay; type: biochemical; settings: recombinant human JAK2 (aa 808-end), 30uM ATP, 60 minutes, room temperature; read-out: JAK inhibitory activity IC50
T2 construct: human JAK2, amino acids 808-end; His6 (C); purchased Upstate Biotechnology 14-640; host or cells: baculovirus in Sf21 cells
T2 sequence (O60674 808-1132 limits assumed): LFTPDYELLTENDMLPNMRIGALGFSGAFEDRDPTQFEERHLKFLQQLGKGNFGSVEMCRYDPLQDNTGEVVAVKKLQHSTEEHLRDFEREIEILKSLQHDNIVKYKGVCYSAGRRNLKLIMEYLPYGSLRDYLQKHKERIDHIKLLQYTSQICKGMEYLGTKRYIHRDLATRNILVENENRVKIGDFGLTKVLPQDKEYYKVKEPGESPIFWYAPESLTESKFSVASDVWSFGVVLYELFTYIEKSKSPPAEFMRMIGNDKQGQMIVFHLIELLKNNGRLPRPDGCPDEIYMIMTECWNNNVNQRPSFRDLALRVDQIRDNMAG
Method: JAK2 kinase activity was measured for its ability to phosphorylate synthetic tyrosine residues within a generic polypeptide substrate using an Amplified Luminescent Proximity Assay (Alphascreen) technology (PerkinElmer, 549 Albany Street, Boston, Mass.).
To measure JAK2 kinase activity, commercially available purified enzyme, C-terminal His6-tagged, recombinant, human JAK2, amino acids 808-end, (Genbank Accession number NM 004972) expressed by baculovirus in Sf21 cells from Upstate Biotechnology #14-640 was used. After incubation of the kinase with a biotinylated substrate and adenosine triphosphate (ATP) for 60 minutes at room temperature, the kinase reaction was stopped by the addition of 30 mM ethylenediaminetetraacetic acid (EDTA). The reaction was performed in 384 well microtitre plates and the reaction products were detected with the addition of streptavidin coated Donor Beads and phosphotyrosine-specific antibodies coated Acceptor Beads using the EnVision Multilabel Plate Reader after an overnight incubation at room temperature.

T1 sequence (P04629 442-796): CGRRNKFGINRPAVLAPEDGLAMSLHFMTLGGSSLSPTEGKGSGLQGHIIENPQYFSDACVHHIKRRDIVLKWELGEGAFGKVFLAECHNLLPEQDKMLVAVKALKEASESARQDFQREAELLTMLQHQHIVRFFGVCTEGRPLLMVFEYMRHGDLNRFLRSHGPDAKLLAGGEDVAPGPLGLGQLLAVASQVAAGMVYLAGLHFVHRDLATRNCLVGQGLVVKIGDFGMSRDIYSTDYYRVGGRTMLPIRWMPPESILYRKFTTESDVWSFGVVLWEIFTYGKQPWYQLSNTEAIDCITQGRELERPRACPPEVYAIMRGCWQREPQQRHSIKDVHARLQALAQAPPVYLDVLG

Row | IC50 (human Trk A kinase) | IC50 (human JAK2) | Structure (SMILES)
1 | 33 nM | – | CC(C)Oc1cc(Nc2nc(NC(C)c3ncc(F)cn3)ncc2Cl)n[nH]1 (centres unmarked) [Example 1, 5-Chloro-N^4-(5-isopropoxy-1H-pyrazol-3-yl)-N^2-[1-(5-fluoropyrimidin-2-yl)ethyl]pyrimidine-2,4-diamine]
2 | – | 3.9 nM | COc1cc(Nc2nc(N[C@@H](C)c3ncc(F)cn3)ncc2Cl)n[nH]1 [Example 7, 5-Chloro-N^2-[(1S)-1-(5-fluoropyrimidin-2-yl)ethyl]-10-(5-methoxy-1H-pyrazol-3-yl)pyrimidine-2,4-diamine]

— patent US8088784B2, “4-(3-aminopyrazole) pyrimidine derivatives for use as tyrosine kinase inhibitors in the treatment of cancer” (AstraZeneca AB, priority 2005, dated 2012)
